System: creeping bentgrass
Test: Experiment No. 1: growth chamber pot trial, foliar GB and choline under heat and mild drought stress
Assay type: in vivo
Details: for Root Viability: TTC method
Procedure: A growth chamber pot trial was conducted as follows. […] The choline used in this study was supplied in the form of choline chloride from Sigma-Aldrich, Inc. (St. Louis, MO). […] These conditions simulated summer putting green stress. The treatments were as follows: • 1. […] GB at 0.5 oz./1,000 ft^2 every 14 days. • 3. GB at 1.0 oz./1,000 ft^2 every 14 days. • 4. […] The rate and source of fertilization for treatments #2-7 was the same as treatment #1 (fertilized control), so all seven treatments received identical fertility input. […] The term “low rate” is used in this description of Experiment No. 1 to refer to 0.5 oz./1,000 ft^2 treatments, while the term “high rate” is used to refer to 1.0 oz./1,000 ft^2 treatments. […] Photochemical efficiency (PE). Photochemical Efficiency was measured with a chlorophyll fluorometer (OS-50II, Opti-Sciences, Inc., Hudson, NH) biweekly based on the Fv/Fm, which is the ratio of variable chlorophyll fluorescence (Fv) to maximum chlorophyll fluorescence (Fm). […] Chlorophyll content. After clipping yields were weighed, leaf tissues were ground into powder, and chlorophyll was extracted in pure acetone content for 72 hours, and the absorbance was measured using a spectrophotometer. • e. Leaf carotenoids were extracted in the same sample as for chlorophyll content and carotenoids were measured using a spectrophotometer (Zhang et al., 2005). • f. Leaf proline content. […] After centrifuging, the supernatant was collected, and proline was analyzed according to Wu et al., 2017. • g. Root viability. […] Root growth characteristics. At the end of trial, roots from each pot were washed and cleaned. Roots were scanned using WinRHIZOTM technology (Regent Instruments Inc., Quebec, Canada), and root length, root surface area, root diameter, and root volume were calculated. (Zhang et al., 2017). • i. Root biomass of each pot was determined at the end of the trial. Roots were dried at 65° C. for 72 hours before being weighed.

`C[N+](C)(C)CC(=O)[O-]` [GB, Glycine betaine, reference compound] was tested, and the Clippings dry wt (0.5 oz/1000 ft^2, Total) was 0.686bc g/pot, the Carotenoids (0.5 oz/1000 ft^2, day 0) was 1.31a mg/g FW and the Chlorophyll (0.5 oz/1000 ft^2, day 0) was 3.43a mg/g FW. For the same compound, the “Leaf color (1-9, 9 = dark green)” value (0.5 oz/1000 ft^2, day 0) was 7.5a, the “PE (Fv/Fm)” value (0.5 oz/1000 ft^2, day 0) was 0.777a and the Proline (0.5 oz/1000 ft^2, day 0) was 19.0a mg/g FW. For the same compound, the Carotenoids (0.5 oz/1000 ft^2, day 14) was 1.31a mg/g FW, the Chlorophyll (0.5 oz/1000 ft^2, day 14) was 3.44a mg/g FW and the Clippings dry wt (0.5 oz/1000 ft^2, day 14) was 0.159ab g/pot. The “Leaf color (1-9, 9 = dark green)” value (0.5 oz/1000 ft^2, day 14) was 7.1bc, the “PE (Fv/Fm)” value (0.5 oz/1000 ft^2, day 14) was 0.744ab and the Proline (0.5 oz/1000 ft^2, day 14) was 21.2bc mg/g FW. It also gave a Carotenoids (0.5 oz/1000 ft^2, day 28) of 1.00ab mg/g FW, a Chlorophyll (0.5 oz/1000 ft^2, day 28) of 2.89abc mg/g FW and a Clippings dry wt (0.5 oz/1000 ft^2, day 28) of 0.143b g/pot. For the same compound, the “Leaf color (1-9, 9 = dark green)” value (0.5 oz/1000 ft^2, day 28) was 6.3b, the “PE (Fv/Fm)” value (0.5 oz/1000 ft^2, day 28) was 0.676ab and the Proline (0.5 oz/1000 ft^2, day 28) was 35.1a mg/g FW. The Carotenoids (0.5 oz/1000 ft^2, day 42) was 1.13a mg/g FW, the Chlorophyll (0.5 oz/1000 ft^2, day 42) was 2.80ab mg/g FW and the Clippings dry wt (0.5 oz/1000 ft^2, day 42) was 0.152a g/pot. For the same compound, the “Leaf color (1-9, 9 = dark green)” value (0.5 oz/1000 ft^2, day 42) was 6.9ab, the “PE (Fv/Fm)” value (0.5 oz/1000 ft^2, day 42) was 0.668ab and the Proline (0.5 oz/1000 ft^2, day 42) was 34.9bc mg/g FW. It also gave a Carotenoids (0.5 oz/1000 ft^2, day 56) of 1.08ab mg/g FW, a Chlorophyll (0.5 oz/1000 ft^2, day 56) of 2.63abc mg/g FW and a Clippings dry wt (0.5 oz/1000 ft^2, day 56) of 0.233ab g/pot. For the same compound, the “Leaf color (1-9, 9 = dark green)” value (0.5 oz/1000 ft^2, day 56) was 6.3bc, the “PE (Fv/Fm)” value (0.5 oz/1000 ft^2, day 56) was 0.646ab and the Proline (0.5 oz/1000 ft^2, day 56) was 62.9ab mg/g FW. For the same compound, the “Root Biomass” value (0.5 oz/1000 ft^2, end of trial) was 1.34b g/pot, the “Root Diameter” value (0.5 oz/1000 ft^2, end of trial) was 0.189ab mm and the “Root Length” value (0.5 oz/1000 ft^2, end of trial) was 33.1b mm/cm^3. The “Root Volume” value (0.5 oz/1000 ft^2, end of trial) was 9.6a dm^3/cm^3, the “Root Viability” value (0.5 oz/1000 ft^2, end of trial) was 0.877abcd A490/g FW and the Clippings dry wt (1.0 oz/1000 ft^2, Total) was 0.876a g/pot. For the same compound, the Carotenoids (1.0 oz/1000 ft^2, day 0) was 1.30a mg/g FW, the Chlorophyll (1.0 oz/1000 ft^2, day 0) was 3.42a mg/g FW and the “Leaf color (1-9, 9 = dark green)” value (1.0 oz/1000 ft^2, day 0) was 7.5a. The “PE (Fv/Fm)” value (1.0 oz/1000 ft^2, day 0) was 0.743a, the Proline (1.0 oz/1000 ft^2, day 0) was 18.6a mg/g FW and the Carotenoids (1.0 oz/1000 ft^2, day 14) was 1.31a mg/g FW. The Chlorophyll (1.0 oz/1000 ft^2, day 14) was 3.43a mg/g FW, the Clippings dry wt (1.0 oz/1000 ft^2, day 14) was 0.211a g/pot and the “Leaf color (1-9, 9 = dark green)” value (1.0 oz/1000 ft^2, day 14) was 7.3abc. For the same compound, the “PE (Fv/Fm)” value (1.0 oz/1000 ft^2, day 14) was 0.765a, the Proline (1.0 oz/1000 ft^2, day 14) was 21.6bc mg/g FW and the Carotenoids (1.0 oz/1000 ft^2, day 28) was 1.02b mg/g FW. For the same compound, the Chlorophyll (1.0 oz/1000 ft^2, day 28) was 2.71bc mg/g FW, the Clippings dry wt (1.0 oz/1000 ft^2, day 28) was 0.225a g/pot and the “Leaf color (1-9, 9 = dark green)” value (1.0 oz/1000 ft^2, day 28) was 7.0a. For the same compound, the “PE (Fv/Fm)” value (1.0 oz/1000 ft^2, day 28) was 0.715ab, the Proline (1.0 oz/1000 ft^2, day 28) was 25.8b mg/g FW and the Carotenoids (1.0 oz/1000 ft^2, day 42) was 0.99ab mg/g FW. The Chlorophyll (1.0 oz/1000 ft^2, day 42) was 2.47ab mg/g FW, the Clippings dry wt (1.0 oz/1000 ft^2, day 42) was 0.189a g/pot and the “Leaf color (1-9, 9 = dark green)” value (1.0 oz/1000 ft^2, day 42) was 6.5b. The “PE (Fv/Fm)” value (1.0 oz/1000 ft^2, day 42) was 0.673ab, the Proline (1.0 oz/1000 ft^2, day 42) was 38.9abc mg/g FW and the Carotenoids (1.0 oz/1000 ft^2, day 56) was 0.96ab mg/g FW. For the same compound, the Chlorophyll (1.0 oz/1000 ft^2, day 56) was 2.55bc mg/g FW, the Clippings dry wt (1.0 oz/1000 ft^2, day 56) was 0.252a g/pot and the “Leaf color (1-9, 9 = dark green)” value (1.0 oz/1000 ft^2, day 56) was 6.4abc. The “PE (Fv/Fm)” value (1.0 oz/1000 ft^2, day 56) was 0.651a, the Proline (1.0 oz/1000 ft^2, day 56) was 68.5a mg/g FW and the “Root Biomass” value (1 oz/1000 ft^2, end of trial) was 1.64ab g/pot. The “Root Diameter” value (1 oz/1000 ft^2, end of trial) was 0.174b mm, the “Root Length” value (1 oz/1000 ft^2, end of trial) was 40.3ab mm/cm^3 and the “Root Volume” value (1 oz/1000 ft^2, end of trial) was 9.7a dm^3/cm^3. For the same compound, the “Root Viability” value (1 oz/1000 ft^2, end of trial) was 1.076ab A490/g FW.

— US20250151724A1, “Liquid Soil Treatments Containing Choline” (Harrell's, LLC, priority 2023, published 2025)
